Measurements from ChEMBL document CHEMBL4392848, “Proline-based hydroxamates targeting the zinc-dependent deacetylase LpxC: Synthesis, antibacterial properties, and docking studies” (Bioorg Med Chem, 2019).
pIC50, pKi: −log10 of the molar value. Converted amounts (≈) assume the structure as drawn.

Tests used:
Escherichia coli [1] = experiment: Antibacterial activity against Escherichia coli BL21(DE3) assessed as diameter of inhibition zone measured after overnight incubation by agar disc diffusion method; assay type: functional; further: test concentration or dose not given here
Escherichia coli [2] = experiment: Antibacterial activity against Escherichia coli D22 assessed as diameter of inhibition zone measured after overnight incubation by agar disc diffusion method; assay type: functional; further: test concentration or dose not given here
Escherichia coli [3] = experiment: Antibacterial activity against Escherichia coli BL21(DE3) measured after 20 hrs by microdilution method; assay type: functional
Escherichia coli [4] = experiment: Antibacterial activity against Escherichia coli D22 measured after 20 hrs by microdilution method; assay type: functional; settings: D22, 20 h
[5] = Inhibition of Escherichia coli LpxC C63A mutant using UDP-3-O-[(R)-3-hydroxymyristoyl]-N-acetylglucosamine as substrate measured after 30 mins by fluorescence based microplate assay
Klebsiella pneumoniae = experiment: Antibacterial activity against Klebsiella pneumoniae assessed as diameter of inhibition zone measured after 24 hrs by agar disc diffusion method; assay type: functional; further: test concentration or dose not given here
Klebsiella oxytoca = experiment: Antibacterial activity against Klebsiella oxytoca assessed as diameter of inhibition zone measured after 24 hrs by agar disc diffusion method; assay type: functional; further: test concentration or dose not given here
Enterobacter cloacae = experiment: Antibacterial activity against Enterobacter cloacae assessed as diameter of inhibition zone measured after 24 hrs by agar disc diffusion method; assay type: functional; further: test concentration or dose not given here
Klebsiella aerogenes = experiment: Antibacterial activity against Enterobacter aerogenes assessed as diameter of inhibition zone measured after 24 hrs by agar disc diffusion method; assay type: functional; further: test concentration or dose not given here
Proteus mirabilis = experiment: Antibacterial activity against Proteus mirabilis assessed as diameter of inhibition zone measured after 24 hrs by agar disc diffusion method; assay type: functional; further: test concentration or dose not given here
Proteus vulgaris = experiment: Antibacterial activity against Proteus vulgaris assessed as diameter of inhibition zone measured after 24 hrs by agar disc diffusion method; assay type: functional; further: test concentration or dose not given here
Citrobacter freundii = experiment: Antibacterial activity against Citrobacter freundii assessed as diameter of inhibition zone measured after 24 hrs by agar disc diffusion method; assay type: functional; further: test concentration or dose not given here
Pseudomonas aeruginosa = experiment: Antibacterial activity against Pseudomonas aeruginosa assessed as diameter of inhibition zone measured after 24 hrs by agar disc diffusion method; assay type: functional; further: test concentration or dose not given here
[6] = target: 72 kDa type IV collagenase (Homo sapiens, UniProt P08253); experiment: Inhibition of human MMP2 using (7-methoxycoumarin-4-yl)acetyl-Pro-Leu-Gly-Leu-(3-(2,4-dinitrophenyl)-L-2,3-diamino-propionyl)Ala-Arg-NH2 as substrate preincubated for 30 mins followed by substrate addition and measured by fluorescence assay
72 kDa type IV collagenase, sequence (P08253 whole entry): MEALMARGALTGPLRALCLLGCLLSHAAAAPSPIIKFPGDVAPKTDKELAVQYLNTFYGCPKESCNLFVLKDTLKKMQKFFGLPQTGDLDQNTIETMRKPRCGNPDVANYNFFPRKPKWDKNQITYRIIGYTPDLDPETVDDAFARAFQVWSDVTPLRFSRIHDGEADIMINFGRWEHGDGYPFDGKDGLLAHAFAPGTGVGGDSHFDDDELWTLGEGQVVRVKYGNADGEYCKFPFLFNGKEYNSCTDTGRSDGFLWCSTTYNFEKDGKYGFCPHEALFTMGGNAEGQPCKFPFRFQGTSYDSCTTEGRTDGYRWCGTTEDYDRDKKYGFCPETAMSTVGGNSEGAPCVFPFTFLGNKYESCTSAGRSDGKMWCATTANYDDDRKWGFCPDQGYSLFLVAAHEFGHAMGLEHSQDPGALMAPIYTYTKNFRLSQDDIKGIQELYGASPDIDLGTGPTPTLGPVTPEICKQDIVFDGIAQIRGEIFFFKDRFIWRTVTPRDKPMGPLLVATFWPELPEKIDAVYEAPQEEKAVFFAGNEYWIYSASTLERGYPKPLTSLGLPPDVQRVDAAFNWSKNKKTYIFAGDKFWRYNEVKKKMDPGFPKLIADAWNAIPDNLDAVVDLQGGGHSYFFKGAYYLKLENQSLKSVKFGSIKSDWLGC

Neutrophil collagenase = Neutrophil collagenase (Homo sapiens, UniProt P22894); experiment: Inhibition of human MMP8 using (7-methoxycoumarin-4-yl)acetyl-Pro-Leu-Gly-Leu-(3-(2,4-dinitrophenyl)-L-2,3-diamino-propionyl)Ala-Arg-NH2 as substrate preincubated for 30 mins followed by substrate addition and measured by fluorescence assay
Neutrophil collagenase, sequence (P22894 whole entry): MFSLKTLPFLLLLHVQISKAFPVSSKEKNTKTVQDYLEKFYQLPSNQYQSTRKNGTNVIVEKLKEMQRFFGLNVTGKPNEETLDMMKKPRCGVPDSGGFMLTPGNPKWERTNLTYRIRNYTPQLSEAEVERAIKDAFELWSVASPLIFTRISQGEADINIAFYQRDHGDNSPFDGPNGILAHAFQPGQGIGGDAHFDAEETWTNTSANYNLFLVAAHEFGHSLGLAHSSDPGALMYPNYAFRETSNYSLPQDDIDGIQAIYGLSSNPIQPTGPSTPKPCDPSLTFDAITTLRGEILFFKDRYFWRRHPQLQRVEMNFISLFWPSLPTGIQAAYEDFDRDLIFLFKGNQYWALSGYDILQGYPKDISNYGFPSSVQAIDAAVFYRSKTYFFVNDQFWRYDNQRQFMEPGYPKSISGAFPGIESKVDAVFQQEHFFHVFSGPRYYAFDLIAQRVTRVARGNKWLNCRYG

[7] = target: Matrix metalloproteinase-9 (Homo sapiens, UniProt P14780); experiment: Inhibition of human MMP9 using (7-methoxycoumarin-4-yl)acetyl-Pro-Leu-Gly-Leu-(3-(2,4-dinitrophenyl)-L-2,3-diamino-propionyl)Ala-Arg-NH2 as substrate preincubated for 30 mins followed by substrate addition and measured by fluorescence assay
Matrix metalloproteinase-9, sequence (P14780 whole entry): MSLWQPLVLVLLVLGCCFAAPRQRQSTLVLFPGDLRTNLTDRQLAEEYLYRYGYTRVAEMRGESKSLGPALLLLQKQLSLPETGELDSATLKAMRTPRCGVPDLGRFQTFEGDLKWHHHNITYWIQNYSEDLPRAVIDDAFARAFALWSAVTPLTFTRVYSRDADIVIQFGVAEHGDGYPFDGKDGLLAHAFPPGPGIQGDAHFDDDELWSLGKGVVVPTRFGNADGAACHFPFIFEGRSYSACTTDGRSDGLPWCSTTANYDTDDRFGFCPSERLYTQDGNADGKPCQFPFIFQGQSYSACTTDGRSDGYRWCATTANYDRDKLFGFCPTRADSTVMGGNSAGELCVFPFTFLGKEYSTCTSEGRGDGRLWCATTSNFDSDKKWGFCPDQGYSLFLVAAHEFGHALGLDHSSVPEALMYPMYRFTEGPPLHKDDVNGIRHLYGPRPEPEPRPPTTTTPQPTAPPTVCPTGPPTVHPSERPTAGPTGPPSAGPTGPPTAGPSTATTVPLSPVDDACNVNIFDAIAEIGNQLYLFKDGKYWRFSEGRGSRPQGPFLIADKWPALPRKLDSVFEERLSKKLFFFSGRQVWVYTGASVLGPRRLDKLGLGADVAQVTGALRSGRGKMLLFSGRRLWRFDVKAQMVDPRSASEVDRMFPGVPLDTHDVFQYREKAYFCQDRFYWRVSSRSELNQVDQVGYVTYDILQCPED

Collagenase 3 = Collagenase 3 (Homo sapiens, UniProt P45452); experiment: Inhibition of human MMP13 using (7-methoxycoumarin-4-yl)acetyl-Pro-Leu-Gly-Leu-(3-(2,4-dinitrophenyl)-L-2,3-diamino-propionyl)Ala-Arg-NH2 as substrate preincubated for 30 mins followed by substrate addition and measured by fluorescence assay

| MIC (Escherichia coli [3]) | MIC (Escherichia coli [4]) | pIC50 [5] | pIC50 [6] | pIC50 (Neutrophil collagenase) | pIC50 [7] | pIC50 (Collagenase 3) | SMILES | diameter of the inhibition zone (DIZ) (Escherichia coli [1]) | diameter of the inhibition zone (DIZ) (Escherichia coli [2]) | pKi [5] | diameter of the inhibition zone (DIZ) (Klebsiella pneumoniae) | diameter of the inhibition zone (DIZ) (Klebsiella oxytoca) | diameter of the inhibition zone (DIZ) (Enterobacter cloacae) | diameter of the inhibition zone (DIZ) (Klebsiella aerogenes) | diameter of the inhibition zone (DIZ) (Proteus mirabilis) | diameter of the inhibition zone (DIZ) (Proteus vulgaris) | diameter of the inhibition zone (DIZ) (Citrobacter freundii) | diameter of the inhibition zone (DIZ) (Pseudomonas aeruginosa) |
| --- | --- | --- | --- | --- | --- | --- | --- | --- | --- | --- | --- | --- | --- | --- | --- | --- | --- | --- |
| > 256 µM | 8 µM (≈ 3.48 µg/mL) | 4.21 | < 5.00 | < 5.00 | < 5.00 | < 5.00 | O=C(NO)[C@@H]1C[C@@H](O)CN1Cc1ccc(C#Cc2ccc(CN3CCOCC3)cc2)cc1 | 12.3 mm | 21 mm | 5.07 | 7 mm | <6 mm | <6 mm | <6 mm | <6 mm | <6 mm | <6 mm | <6 mm |
| > 256 µM | 8 µM (≈ 3.47 µg/mL) | 4.20 | 6.30 | 7.30 | 6.14 | 6.20 | O=C(NO)[C@H]1CCCN1C(=O)c1ccc(C#Cc2ccc(CN3CCOCC3)cc2)cc1 | 11.3 mm | 24.7 mm | 5.06 | 11 mm | 8 mm | 9 mm | 9 mm | 9 mm | <6 mm | 12 mm | <6 mm |
| > 256 µM | 16 µM (≈ 7.19 µg/mL) | 4.53 | 7.26 | 6.70 | 6.00 | 7.24 | O=C(NO)[C@@H]1C[C@H](O)CN1C(=O)c1ccc(C#Cc2ccc(CN3CCOCC3)cc2)cc1 | 11.3 mm | 19.5 mm | 5.39 | 10 mm | 8 mm | 8 mm | 15 mm | 11 mm | 9 mm | 12 mm | <6 mm |
| > 256 µM | 64 µM (≈ 30.8 µg/mL) | 4.77 |  |  |  |  | O=C(NO)[C@@H]1CCCN1C(=O)c1ccc(C#Cc2ccc(CN3CCS(=O)(=O)CC3)cc2)cc1 | 10.7 mm | 17 mm | 5.62 | 11 mm | <6 mm | 10 mm | 8 mm | 9 mm | 10 mm | <6 mm | <6 mm |
| 128 µM (≈ 59.6 µg/mL) | 8 µM (≈ 3.72 µg/mL) | 4.48 |  |  |  |  | O=C(NO)[C@@H]1C[C@H](O)CN1C(=O)c1ccc(C#Cc2ccc(CN3CCSCC3)cc2)cc1 | 13 mm | 21.3 mm | 5.35 | 15 mm | 11 mm | 14 mm | 18 mm | 10 mm | 9 mm | 14 mm | <6 mm |
| > 256 µM | 256 µM (≈ 129 µg/mL) | < 3.70 | 5.52 |  | < 5.00 | < 5.00 | CC1(C)O[C@@H]2[C@@H](CN(C(=O)c3ccc(C#Cc4ccc(CN5CCOCC5)cc4)cc3)[C@H]2C(=O)NO)O1 | 9 mm | 10 mm | < 4.56 | 8 mm | 8 mm | <6 mm | 8 mm | 8 mm | <6 mm | 11 mm | <6 mm |
| 128 µM (≈ 57.5 µg/mL) | 8 µM (≈ 3.6 µg/mL) | 4.34 |  |  |  |  | O=C(NO)[C@@H]1CCCN1C(=O)c1ccc(C#Cc2ccc(CN3CCSCC3)cc2)cc1 | 12.7 mm | 18 mm | 5.21 | 18 mm | 11 mm | 14 mm | 14 mm | 12 mm | 10 mm | 14 mm | <6 mm |
| > 256 µM | 64 µM (≈ 22.4 µg/mL) | < 3.70 |  |  |  |  | O=C(NO)[C@@H]1C[C@H](O)CN1C(=O)c1ccc(C#Cc2ccccc2)cc1 | <6 mm | 14.3 mm | < 4.56 | <6 mm | 7 mm | <6 mm | <6 mm | 7 mm | 7 mm | 7 mm | <6 mm |

Further lines, the molecule ahead of its results:

| SMILES | MIC (Escherichia coli [3]) | MIC (Escherichia coli [4]) | pIC50 [5] | pIC50 [6] | pIC50 (Neutrophil collagenase) | pIC50 [7] | pIC50 (Collagenase 3) | diameter of the inhibition zone (DIZ) (Escherichia coli [1]) | diameter of the inhibition zone (DIZ) (Escherichia coli [2]) | pKi [5] | diameter of the inhibition zone (DIZ) (Klebsiella pneumoniae) | diameter of the inhibition zone (DIZ) (Klebsiella oxytoca) | diameter of the inhibition zone (DIZ) (Enterobacter cloacae) | diameter of the inhibition zone (DIZ) (Klebsiella aerogenes) | diameter of the inhibition zone (DIZ) (Proteus mirabilis) | diameter of the inhibition zone (DIZ) (Proteus vulgaris) | diameter of the inhibition zone (DIZ) (Citrobacter freundii) | diameter of the inhibition zone (DIZ) (Pseudomonas aeruginosa) |
| --- | --- | --- | --- | --- | --- | --- | --- | --- | --- | --- | --- | --- | --- | --- | --- | --- | --- | --- |
| O=C(NO)[C@@H]1CCCN1Cc1ccc(C#Cc2ccc(CN3CCOCC3)cc2)cc1 | 128 µM (≈ 53.7 µg/mL) | 4 µM (≈ 1.68 µg/mL) | 4.98 | 5.52 | 5.30 | < 5.00 | 6.03 | 15 mm | 25 mm | 5.85 | 20 mm | 13 mm | 20 mm | 18 mm | 18 mm | 12 mm | 16 mm | <6 mm |
| O=C(NO)[C@@H]1C[C@H](O)CN1C(=O)c1ccc(C#Cc2ccc(OCCCCCF)cc2)cc1 | > 256 µM | > 256 µM |  | 8.30 | 7.68 | 6.97 | 10.15 | <6 mm | <6 mm |  |  |  |  |  |  |  |  |  |
| O=C(NO)[C@@H]1CCCN1C(=O)c1ccc(C#Cc2ccc(CN3CCCCC3)cc2)cc1 | > 256 µM | 128 µM (≈ 55.2 µg/mL) | < 3.70 |  |  |  |  | 7 mm | 18.7 mm | < 4.56 | 13 mm | 9 mm | 10 mm | 12 mm | 10 mm | 11 mm | 8 mm | <6 mm |
| O=C(NO)[C@@H]1C[C@H](O)CN1C(=O)c1ccc(C#Cc2ccc(CN3CCC(O)CC3)cc2)cc1 | 64 µM (≈ 29.7 µg/mL) | 4 µM (≈ 1.85 µg/mL) | 4.36 |  |  |  |  | 15.7 mm | 23.7 mm | 5.21 | <6 mm | <6 mm | <6 mm | 9 mm | 11 mm | <6 mm | <6 mm | <6 mm |
| CN(C)c1ccc(C#Cc2ccc(C(=O)N3C[C@@H](O)C[C@H]3C(=O)NO)cc2)cc1 | 256 µM (≈ 101 µg/mL) | 32 µM (≈ 12.6 µg/mL) | 4.78 |  |  |  |  | <6 mm | 13 mm | 5.64 | 9 mm | 8 mm | 8 mm | 9 mm | 8 mm | <6 mm | 9 mm | <6 mm |
